One data set deals with Hsp82 (Saccharomyces cerevisiae, UniProt P02829). The experiment in a line: Hsp82/ATPase test (PK/LDH coupled spectrophotometric method; malachite green method also described). It counts as biochemical. The following applies: 1 μM Hsp82, 250 μM ATP, 37° C., absorbance at 340 nm. As to the method: The biochemical activity of the compounds can in particular be evaluated by means of the “Hsp82/ATPase” test described below:
The inorganic phosphate released during the hydrolysis of ATP by the ATPase activity of Hsp82 is quantified by the malachite green method. In the presence of this reagent, formation of the inorganic phosphate-molybdate-malachite green complex, which absorbs at a wavelength of 620 nm, occurs.
The products to be evaluated are incubated in a reaction volume of 30 μl, in the presence of 1 μM Hsp82 and of 250 μM of substrate (ATP) in a buffer composed of 50 mM Hepes-NaOH (pH 7.5), 1 mM DTT, 5 mM MgCl2 and 50 mM KCl at 37° C. for 60 min. In parallel, an inorganic phosphate range of between 1 and 40 μM is made up in the same buffer. […] The inorganic phosphate concentration of each sample is then calculated from the standard curve. The ATPase activity of Hsp82 is expressed as concentration of inorganic phosphate produced in 60 minutes. The effect of the various products tested is expressed as percentage inhibition of the ATPase activity.
The formation of ADP due to the ATPase activity of Hsp82 was used to develop another method for evaluating the enzyme activity of this enzyme by application of an enzymatic coupling system involving pyruvate kinase (PK) and lactate dehydrogenase (LDH). In this kinetic-type spectrophotometric method, PK catalyses the formation of ATP and of pyruvate from phosphoenol pyruvate (PEP) and the ADP produced by Hsp82. The pyruvate formed, which is a substrate for LDH, is subsequently converted to lactate in the presence of NADH. In this case, the decrease in the NADH concentration, measured through the decrease in absorbance at the wavelength of 340 nm, is proportional to the concentration of ADP produced by Hsp82.
The products tested are incubated in a reaction volume of 100 μl of buffer composed of 100 mM Hepes-NaOH (pH 7.5), 5 mM MgCl2, 1 mM DTT, 150 mM KCl, 0.3 mM NADH, 2.5 mM PEP and 250 μM ATP. This mixture is preincubated at 37° C. for 30 minutes before the addition of 3.77 units of LDH and 3.77 units of PK. The reaction is initiated by addition of the product to be evaluated, in varying concentrations, and of Hsp82, at the concentration of 1 μM. The enzymatic activity of Hsp82 is then measured continuously, in a microplate reader, at 37° C., at the wavelength of 340 nm. The initial rate of the reaction is obtained by measuring the slope of the tangent to the origin of the curve recorded. The enzymatic activity is expressed in μM of ADP formed per minute. The effect of the various products tested is expressed as 50% inhibitory concentration (1050) with respect to the ATPase activity, according to the codification below: […]

Data set [1] concerns Her2 expression in SKBr3 cells. Put plainly: phenotypic SKBr3/HER2 cell test (Her2 expression at the cell surface, flow cytometry). It counts as cell-based. The following applies: Homo sapiens, SK-BR-3, incubation for 24 h, anti-Her2 antibody coupled to PE, FACS. As to the method:
The cellular activity of the compounds can in particular be evaluated by means of the phenotypic “SKBr3/HER2” cell test described below:
The SKBr3 […] adenocarcinoma cells, overexpressing the Her2 tyrosine kinase receptor, originate from the ATCC (HTB-30) and are cultured in McCoy's 5A medium supplemented with 10% FBS and 1% L-glutamine.
The cells are seeded in 12-well plates at a proportion of 125 000 cells per well in 1 ml of complete medium. The following day, the products are added at varying concentrations. After incubation for 24 h, the cells are trypsinized, washed with PBS and incubated with 100 ng of anti-Her2 antibody coupled to PE (phycoerythrin) (BD 340552) for 30 minutes at 4° C. in the dark. The fluorescence due to the expression of the Her2 receptor at the surface of the cells is then read using a FACS Calibur flow cytometer (Becton-Dickinson). The percentage inhibition of Her2 expression as a function of the concentrations of product tested is fitted by the nonlinear regression technique (XLfit, equation 205) in order to measure the IC50 for each product.
Background: Flow cytometry measures light scatter and fluorescence of single cells or particles in a stream.

Chain of Hsp82 (P02829 whole entry): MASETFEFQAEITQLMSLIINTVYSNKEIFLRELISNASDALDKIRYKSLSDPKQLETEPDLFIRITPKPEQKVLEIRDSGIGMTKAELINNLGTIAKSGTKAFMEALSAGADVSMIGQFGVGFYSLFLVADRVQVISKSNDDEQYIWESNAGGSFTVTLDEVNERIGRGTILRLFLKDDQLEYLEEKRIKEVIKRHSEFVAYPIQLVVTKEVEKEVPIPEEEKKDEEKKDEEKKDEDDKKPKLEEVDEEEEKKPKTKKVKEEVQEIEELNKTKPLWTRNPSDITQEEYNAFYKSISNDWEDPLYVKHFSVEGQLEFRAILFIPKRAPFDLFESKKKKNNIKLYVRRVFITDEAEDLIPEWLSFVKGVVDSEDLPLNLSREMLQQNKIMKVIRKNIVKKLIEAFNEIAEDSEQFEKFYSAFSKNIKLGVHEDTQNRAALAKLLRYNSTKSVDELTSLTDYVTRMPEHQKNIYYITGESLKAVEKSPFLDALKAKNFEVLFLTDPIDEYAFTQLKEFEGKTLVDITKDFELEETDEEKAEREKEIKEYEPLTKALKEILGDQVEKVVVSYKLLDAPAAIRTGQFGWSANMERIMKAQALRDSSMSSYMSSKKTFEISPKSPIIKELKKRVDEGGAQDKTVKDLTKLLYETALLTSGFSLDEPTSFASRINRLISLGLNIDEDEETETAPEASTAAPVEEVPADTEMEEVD

On to `Cc1nn(-c2ccc(C(N)=O)c(N[C@H]3CC[C@H](O)CC3)c2)c2cccc(-c3cnc4ccccc4c3)c12` [Example 1, 2-(trans-4-hydroxycyclohexylamino)-4-(3-methyl-4-quinolin-3-ylindazol-1-yl)benzamide], for which the IC50 (against Hsp82; in data set [1]) was less than 1 µM throughout.

As for `Cc1nn(-c2cnc(C(N)=O)c(NC3CCOCC3)c2)c2cccc(-c3cnc4ccccc4c3)c12` [Example 10, 5-(3-methyl-4-quinolin-3-ylindazol-1-yl)-3-(tetrahydro-pyran-4-ylamino)pyridine-2-carboxamide], the IC50 (on Hsp82; in data set [1]) was less than 1 µM in each case.

As to `Cc1nn(-c2ccc(C(N)=O)c(NCCCO)c2)c2cccc(-c3cnc4ccccc4c3)c12` [Example 3, 2-(3-hydroxypropylamino)-4-(3-methyl-4-quinolin-3-ylindazol-1-yl)benzamide], the IC50 (against Hsp82; in data set [1]) was less than 1 µM each time.

For `Cc1nn(-c2ccc(C(N)=O)c(NC3CC(C)(C)NC(C)(C)C3)c2)c2cccc(-c3cnc4ccccc4c3)c12` [Example 6, 4-(3-methyl-4-quinolin-3-ylindazol-1-yl)-2-(2,2,6,6-tetramethylpiperidin-4-ylamino)benzamide], the IC50 (at Hsp82; in data set [1]) was less than 1 µM each time.

As for `Cc1nn(-c2ccc(C(N)=O)c(N[C@H]3CC[C@H](O)CC3)c2)c2cccc(-c3nc4ccc(F)cc4[nH]3)c12` [Example 12, 4-[4-(6-fluoro-1H-benzimidazol-2-yl)-3-methylindazol-1-yl]-2-(trans-4-hydroxycyclohexylamino)benzamide], the IC50 (against Hsp82; in data set [1]) was less than 1 µM throughout.

For `Cc1nn(-c2cnc(C(N)=O)c(NCCc3ccccn3)c2)c2cccc(-c3cnc4ccccc4c3)c12` [Example 18, 5-[3-methyl-4-quinolin-3-ylindazol-1-yl]-3-[2-pyridin-2-ylethylamino]pyridine-2-carboxamide], the IC50 against Hsp82 was less than 1 µM; in data set [1], 1 to 10 µM.

For the compound `Cc1nn(-c2ccc(C(N)=O)c(N[C@H]3CC[C@H](OC(=O)CN)CC3)c2)c2cccc(-c3cnc4ccccc4c3)c12` [Example 11, aminoacetic acid trans-4-[2-carbamoyl-5-(3-methyl-4-quinolin-3-ylindazol-1-yl)phenylamino]cyclohexyl ester], the IC50 (at Hsp82; in data set [1]) was less than 1 µM in each case.

As for `Cc1nn(-c2ccc(C(N)=O)c(NCC(C)(C)O)c2)c2cccc(-c3cnc4ccccc4c3)c12` [Example 5, 2-(2-hydroxy-2-methylpropylamino)-4-(3-methyl-4-quinolin-3-ylindazol-1-yl)benzamide], the IC50 (on Hsp82; in data set [1]) was less than 1 µM throughout.

With `Cc1nn(-c2ccc(C(N)=O)cc2)c2cccc(-c3cnc4ccccc4c3)c12` [Example 2, 4-(3-methyl-4-quinolin-3-ylindazol-1-yl)benzamide], the IC50 is 1 to 10 µM against Hsp82 and 10 to 100 µM in data set [1].

Take `Cc1nn(-c2ccc(C(N)=O)c(NC3CCOCC3)c2)c2cccc(-c3cnc4ccccc4c3)c12` [Example 7, 4-(3-methyl-4-quinolin-3-ylindazol-1-yl)-2-(tetrahydropyran-4-ylamino)benzamide]: the IC50 (on Hsp82; in data set [1]) was less than 1 µM each time.

`Cc1nn(-c2ccc(C(N)=O)c(NC3CC4CCC3O4)c2)c2cccc(-c3cnc4ccccc4c3)c12` (stereo not drawn) [Example 14, 4-(3-methyl-4-quinolin-3-ylindazol-1-yl)-2-[exo-(7-oxabicyclo[2.2.1]hept-2-yl)amino]benzamide] showed a melting point of 170 to 172 °C. The same compound yielded an IC50 in data set [1] of less than 1 µM.

`CC(C)(O)CNc1cc(-n2nc(Br)c3c(-c4cnc5ccccc5c4)cccc32)cnc1C(N)=O` [Example 27, 5-(3-bromo-4-quinolin-3-ylindazol-1-yl)-3-(2-hydroxy-2-methylpropylamino)pyridine-2-carboxamide] returned an IC50 in data set [1] of less than 1 µM.

For the compound `Cc1nn(-c2ccc(C(N)=O)c(NC3CC(C)(C)N(C)C(C)(C)C3)c2)c2cccc(-c3cnc4ccccc4c3)c12` [Example 15, 4-(3-methyl-4-quinolin-3-ylindazol-1-yl)-2-(1,2,2,6,6-pentamethylpiperidin-4-ylamino)benzamide], the IC50 is 1 to 10 µM against Hsp82 and less than 1 µM in data set [1].

`NC(=O)c1ncc(-n2nc(C(F)(F)F)c3c(-c4cnc5ccccc5c4)cccc32)cc1N[C@H]1CC[C@H](O)CC1` [Example 23, 3-(trans-4-hydroxycyclohexylamino)-5-(4-quinolin-3-yl-3-trifluoromethylindazol-1-yl)pyridine-2-carboxamide]: the IC50 in data set [1] was less than 1 µM.

In general, IC50 refers to the midpoint of a concentration-inhibition curve. Lower therefore signals higher potency. Usually melting point stands for the temperature of the solid-liquid transition.

The values are drawn from US20120010241A1, “HSP90 INHIBITING INDAZOLE DERIVATIVES, COMPOSITIONS CONTAINING SAME AND USE THEREOF” (SANOFI, priority 2009, published 2012).
